Experiment: Olopatadine-PDE4 Inhibitor Solubility Study
Type: physicochemical
Conditions: for effect on the aqueous solubility of olopatadine: 0.1-1% PDE4 inhibitor, FIGS. 1 and 2; for ratio of solubility enhancement: molecules of Compound per olopatadine molecule, straight line fit
Method: The following experiments were conducted to determine the effect of compounds of Formula I on the aqueous solubility of olopatadine.
Formulations with the compositions shown in Table 1 were prepared for olopatadine solubility testing as follows: ten milliliter samples of the formulations containing either 0%, 0.1%, 0.3%, or 1% of either Compound 1 (4-(3,5-Dichloropyridin-4-ylamino)-7-methoxy-8-(6-(4-methylpiperazin-1-yl)hexyloxy)quinolin-2(1H)-one) or Compound 2 (4-(3,5-Dichloropyridin-4-ylamino)-7-methoxy-8-(6-morpholinohexyloxy)quinolin-2(1H)-one) with at least 1% Olopatadine Hydrochloride as shown in Table 2 were prepared and adjusted to the target pH. […] The samples were mixed on a rocker and the pH was readjusted to the target pH after one and six days of mixing. On day seven, the samples were filtered through an Acrodisc 25 mm GXF/GHP 0.2 micron filter. The first three milliliters of filtrate were collected for final pH measurement and the next 3 milliliters of filtrate were filled into two 1.5 mL HPLC vials for the olopatadine assay (as free base) as shown below. Compound 1 was not assayed in samples A through H as an assay method was not available. Duplicate Compound 1/Olopatadine samples for the olopatadine assay were injected neat into the HPLC. Compound 2 and olopatadine were assayed in samples I, J, and K. Single Compound 2/Olopatadine samples were diluted 1/10 with 50/50 Acetonitrile/Water and injected into the UPLC.
The final pH of the filtered samples was measured with an Orion 525A+pH meter using a Ross Semimicro combination pH electrode and automatic temperature probe.
The Compound 1 and Olopatadine HPLC assay was conducted using the following conditions: • Instrument: Waters 2695 Separation Module and Waters 2487 • Variable Wavelength Ultraviolet-Visible Detector with Empower Software • Column: Phenomenex Ultracarb C8, 5 micron, 150×4.6 mm • Mobile Phase: • Solvent A=Acetonitrile • Solvent B=100 milliMolar Potassium Phosphate with 0.1% Triethylamine adjusted to pH 3.0 with NaOH/HC1 • Flowrate=1 milliliter/Minute • Gradient:
• Detection: 299 nm Ultraviolet Absorbance • Injection Volume: 20 microliters • Olopatadine Retention Time: About 6.2 minutes
The Compound 2 and Olopatadine UPLC assay was conducted using the following conditions: • Instrument: Waters ACQUITY UPLC System with TUV Detector and Empower Software • Column: Acquity UPLC BEH Shield C18, 1.7 micron, 100×2.1 mm • Mobile Phase: • Solvent A=0.1% Phosphoric Acid adjusted to pH 3.0 with NaOH/HCl • Solvent B=Acetonitrile • Flowrate=0.3 milliliter/Minute • Gradient:
• Detection: 285 nm Ultraviolet Absorbance • Injection Volume: 3 microliters • AL-53817 Retention Time: About 4.1 minutes • Olopatadine Retention Time: About 4.5 minutes
The target pH of samples E through K was 5.2 and the pH readings of the suspensions were close to this value prior to filtration. However, after filtration the solution pH was generally about 0.2 pH units higher than the suspension pH. This pH shift is commonly observed when measuring the pH of a suspension versus a solution. Duplicate samples of A through H were assayed and the duplicate values were averaged.
The milliMolar (mM) concentrations were calculated by dividing the % w/v concentrations by the molecular weight and multiplying by 10000.

solubility of the PDE4 inhibitor in the formulation (pH 7.4) | SMILES | effect on the aqueous solubility of olopatadine | ratio of solubility enhancement
– | COc1ccc2c(Nc3c(Cl)cncc3Cl)cc(=O)[nH]c2c1OCCCCCCN1CCN(C)CC1 [Compound 1, 4-(3,5-Dichloropyridin-4-ylamino)-7-methoxy-8-(6-(4-methylpiperazin-1-yl)hexyloxy)quinolin-2(1H)-one] | increased the aqueous solubility of olopatadine in a linear concentration dependent manner | about two molecules of the Compounds to one olopatadine molecule
not sufficiently soluble | COc1ccc2c(Nc3c(Cl)cncc3Cl)cc(=O)[nH]c2c1OCCCCCCN1CCOCC1 [Compound 2, 4-(3,5-Dichloropyridin-4-ylamino)-7-methoxy-8-(6-morpholinohexyloxy)quinolin-2(1H)-one] | increased the aqueous solubility of olopatadine in a linear concentration dependent manner | about two molecules of the Compounds to one olopatadine molecule
